Measurements published in US10988542B2, “Chimeric antigen receptors with integrated controllable functions” (CELLECTIS, priority 2015, dated 2021).
Like-named read-outs stand apart in the source and are kept apart here. One block for each molecule: values may come before it.

Tests used:
FKBP-FRB* mcCAR = biological target: T1, FKBP-FRB* mcCAR (Homo sapiens, UniProt P62942); assay: Competition between AP21967 and tacrolimus, surface presentation of engineered CAR; type: cell-based; conditions: AP21967 10 nM fixed, tacrolimus 0-500 nM, 20 hours
T1 construct: expressed in transfected cells; host or cells: T cells, mRNA electroporation
T1 sequence (P62942 with tags, fused parts or gaps): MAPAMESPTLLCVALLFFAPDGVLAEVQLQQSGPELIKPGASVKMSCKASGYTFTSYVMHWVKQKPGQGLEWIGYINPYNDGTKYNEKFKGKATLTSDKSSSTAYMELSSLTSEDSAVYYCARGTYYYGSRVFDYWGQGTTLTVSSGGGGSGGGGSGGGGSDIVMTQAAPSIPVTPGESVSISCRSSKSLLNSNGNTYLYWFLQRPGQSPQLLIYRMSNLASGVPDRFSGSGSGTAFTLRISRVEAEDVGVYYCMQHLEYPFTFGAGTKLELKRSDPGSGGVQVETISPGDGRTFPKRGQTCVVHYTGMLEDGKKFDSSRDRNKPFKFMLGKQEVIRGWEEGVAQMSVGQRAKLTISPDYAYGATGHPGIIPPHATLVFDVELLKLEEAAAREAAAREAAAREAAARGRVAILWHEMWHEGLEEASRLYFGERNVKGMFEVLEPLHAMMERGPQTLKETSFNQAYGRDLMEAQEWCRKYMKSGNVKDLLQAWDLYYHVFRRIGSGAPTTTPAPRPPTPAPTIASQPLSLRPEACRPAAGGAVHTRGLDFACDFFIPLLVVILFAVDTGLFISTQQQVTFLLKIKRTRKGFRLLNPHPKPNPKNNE
T1 sequence (Q01362 with tags, fused parts or gaps partner limits assumed): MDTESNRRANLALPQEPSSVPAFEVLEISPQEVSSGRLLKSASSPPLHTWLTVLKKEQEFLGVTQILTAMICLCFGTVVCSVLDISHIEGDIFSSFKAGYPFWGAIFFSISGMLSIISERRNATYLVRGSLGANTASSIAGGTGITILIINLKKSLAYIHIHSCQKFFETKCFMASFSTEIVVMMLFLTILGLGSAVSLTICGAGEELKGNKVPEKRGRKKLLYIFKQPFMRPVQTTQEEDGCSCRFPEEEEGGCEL
T1 sequence (P30273 with tags, fused parts or gaps partner limits assumed): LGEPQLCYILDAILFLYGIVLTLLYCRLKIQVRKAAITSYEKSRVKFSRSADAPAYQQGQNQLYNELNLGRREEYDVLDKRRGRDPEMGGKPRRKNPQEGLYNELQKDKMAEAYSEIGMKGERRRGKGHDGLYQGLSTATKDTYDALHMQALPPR

[1] = test system: FKBP/FRB-mcCAR and FRB/FKBP-mcCAR constructs; assay: Rapamycin switch-on: surface detection of mcCAR with FKBP and FRB in the α-chain (flow cytometry); type: cell-based; conditions: rapamycin 100 nM, 20 h vs no rapamycin
From the text: All constructs originated from the pCLS24707 (SEQ ID NO: 38) which encode the α-chain (SEQ ID NO: 39), β-chain (SEQ ID NO: 40) and γ-chain (SEQ ID NO: 41) of the multichain CAR (mcCAR). The sequences coding for the FRB domain (SEQ ID NO: 2) and FKBP domain (SEQ ID NO: 1) were synthetized de novo (GeneCust). The scFV, hinge-transmembrane-intracytoplasmic alpha chain domain, the FRB and the FKBP were further amplified by PCR to generate golden gate assembly compatible fragments (SEQ ID NO: 42 to 45). In addition an FRB-FKBP and an FKBP-FRB fragment were generated (SEQ ID NO: 46 to 47) using a four-EAAAR-linker (SEQ ID NO: 19) or a −GS-4x-EAAAR-linker (SEQ ID NO: 20) and standard molecular biology procedures. […]
All individual chains were amplified by PCR using oligo pairs α-chain-F/α-chain-R, β-chain-F/β-chain-R and γ-chain-F/γ-chain-R (SEQ ID NO: 56 to 61) prior to mRNA synthesis. mRNA encoding the different α-chains, β-chain, γ-chain were in vitro transcribed from the PCR product and polyadenylated using the mMessage mMachine T7 Ultra kit (Life technologies) following the manufacturer's instructions. RNAs were purified with RNeasy columns (Qiagen), eluted in cytoporation medium T and quantified by measuring absorbance at 260 nm using a Nanodrop ND-1000 spectrophotometer. […]

MOLM13-Luc tumour cells = assay: Antitumor activity of inducible CD123 CAR+ T cells with AP21967 in NOG mice injected with MOLM13-Luc; type: in vivo; conditions: switch-on mcCAR-CD123 T cells IV plus AP21967 3 mg/kg/inj IP twice daily; FIG. 11
Method: The anti-tumor activity of human T-cells expressing a switch-on mcCAR-CD123 as described in Example 1, was assessed in NOG mice intravenously injected with MOLM13-Luc tumour cells.
To establish the MOLM13-Luc cell line, MOLM13 cells (DSMZ ACC 554) have been transduced with a lentivirus encoding the GFP and the firefly luciferase (amsbio LVP438-PBS). The GFP-positive cells have been selected with Neomycin (ref 10131-027, Gibco, Life Technologies, Saint-Aubin, France). MOLM13-Luc cells are grown in suspension at 37° C. in a humidified atmosphere (5% CO2, 95% air) into culture medium RPMI 1640 containing 2.05 mM L-glutamine (ref: BE12-702F, Lonza) supplemented with 15% fetal bovine serum (ref: 3302, Lonza, Verviers, Belgium), 100 U/mL Penicillin and 100 μg/mL Streptomycin (ref: DE17-602E, Lonza). The cells are counted in a hemocytometer and their viability is assessed by 0.25% trypan blue exclusion assay and are passed twice weekly (0.8 millions/mL) in fresh culture medium.
The day of injection to mice, frozen human T-cells transformed with the switch-on mcCAR-CD123 CAR are assessed to be within a range of 1-2.106 live cells per mL. […]
Mice were monitored daily with respect to their body weight measurements, clinical and mortality records, and treatment were recorded on Vivo Manager® database (Biosystemes, Dijon, France).

FKBP-FRB* scCAR = biological target: T2, FKBP-FRB* scCAR (Homo sapiens, UniProt P62942); assay: AP21967 switch-on scCAR surface detection (Fc-tagged recombinant CD123); type: cell-based; conditions: FKBP-FRB* domains; FIG. 7
T2 construct: expressed in transfected cells
T2 sequence (P62942 with tags, fused parts or gaps): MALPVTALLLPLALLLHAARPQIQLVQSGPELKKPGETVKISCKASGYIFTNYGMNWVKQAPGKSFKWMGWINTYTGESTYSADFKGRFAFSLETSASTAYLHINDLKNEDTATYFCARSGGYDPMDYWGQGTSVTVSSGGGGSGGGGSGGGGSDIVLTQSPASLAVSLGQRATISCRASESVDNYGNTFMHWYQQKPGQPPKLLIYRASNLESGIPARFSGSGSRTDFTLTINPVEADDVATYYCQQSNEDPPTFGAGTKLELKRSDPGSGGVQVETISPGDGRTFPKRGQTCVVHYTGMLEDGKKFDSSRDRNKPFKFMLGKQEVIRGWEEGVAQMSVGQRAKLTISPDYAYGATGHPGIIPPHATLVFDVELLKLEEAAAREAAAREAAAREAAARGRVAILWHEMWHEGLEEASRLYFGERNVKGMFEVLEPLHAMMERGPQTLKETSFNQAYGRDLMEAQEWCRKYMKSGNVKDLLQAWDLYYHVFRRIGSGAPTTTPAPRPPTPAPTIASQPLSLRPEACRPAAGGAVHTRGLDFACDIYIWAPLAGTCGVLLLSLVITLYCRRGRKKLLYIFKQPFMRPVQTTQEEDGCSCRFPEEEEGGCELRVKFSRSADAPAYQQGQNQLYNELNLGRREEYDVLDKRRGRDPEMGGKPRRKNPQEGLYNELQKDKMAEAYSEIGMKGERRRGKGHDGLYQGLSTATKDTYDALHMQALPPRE
From the text: The CAR extracellular domains (alpha chain) presented in example 2 were used as template to prepare plasmid DNA encoding single chain CARs (scCARs). The CD8 alpha transmembrane domain (SEQ ID NO: 32), the intracytoplasmic signalling region of the ζ-chain of the CD3-T cell receptor (SEQ ID NO: 28) and the signalling domains from co-stimulatory 4-1BB (CD137) (SEQ ID NO:31) were used to complete the CARs. scCARs were assemble by Golden Gate cloning using round of restriction and ligation, according to standard molecular biology procedures, leading to pCLS27572 (FKBP-FRB*) (SEQ ID NO:65), pCLS27603 (FKBP) (SEQ ID NO:66), pCLS27604 (FRB*) (SEQ ID NO:67). The respective amino acid sequences encoded by these constructs are shown in SEQ ID NOs: 68 to 70.
Primary labelling for the detection of the scCARs was performed with Fc-tagged recombinant CD123 (Lake Pharma) in PBS FBS2%, EDTA 2 mM, azide 0.1% for 20 min at 4° C. followed by a two washing steps with PBS FBS2% EDTA 2 mM azide 0.1%. […] Following the extracellular labelling, the cell viability was monitored using the efluor450 or efluor780 (ebioscience) in PBS for 20 min 4° C., followed by a washing step with PBS FBS2% EDTA 2 mM azide 0.1% and fixed in PFA 2%.

Daudi CD19 positive = assay: Flow cytometry-based cytotoxicity assay of FKBP-FRB* mcCAR CD19 T-cells with AP21967; type: cell-based; conditions: for EC50: Homo sapiens, Daudi, dose response 0, 1, 5, 10, 33, 100 nM
Method: The cytolytic activity of engineered T-cells endowed with the FKBP-FRB* mcCAR CD19 from example 2, was assessed using a flow cytometry-based cytotoxicity assay. In this assay target cells presenting the CAR target antigen (Daudi CD19 positive) are labelled with CellTrace™ CFSE or and control cells with CellTrace™ violet.
The whole cell population was recovered, washed in PBS and labeled with eFluor780 viability marker before being fixed by 2% PFA. Fixed cells were analyzed by flow cytometry to determine their viability. Flow cytometry and data analysis were performed as described in example 1.
The level of targeted cell killing also correlated with the level of CAR detection (FIG. 9).

FKBP-FRB* mcCAR CD19 = biological target: T3, FKBP-FRB* mcCAR CD19 (Homo sapiens, UniProt P62942); assay: AP21967 switch-on: surface detection and dose response, CD19 targeting engineered CAR (Fab'2 detection); type: cell-based
T3 construct: expressed in transfected cells; host or cells: T cells, mRNA electroporation
T3 sequence (Q01362 with tags, fused parts or gaps partner limits assumed): as the sequence (Q01362 with tags, fused parts or gaps partner limits assumed) above
T3 sequence (P30273 with tags, fused parts or gaps partner limits assumed): as the sequence (P30273 with tags, fused parts or gaps partner limits assumed) above

surface presentation/detection of the engineered CAR with increasing tacrolimus (FKBP-FRB* mcCAR): decreased surface detection
SMILES: C=CC[C@@H]1/C=C(\C)C[C@H](C)C[C@H](OC)[C@H]2O[C@@](O)(C(=O)C(=O)N3CCCC[C@H]3C(=O)O[C@H](/C(C)=C/[C@@H]3CC[C@@H](O)[C@H](OC)C3)[C@H](C)[C@@H](O)CC1=O)[C@H](C)C[C@@H]2OC [tacrolimus]
surface presentation/detection of the engineered CAR with increasing tacrolimus (FKBP-FRB* mcCAR; listed as Tacrolimus): possibility to tune the surface presentation

SMILES: CO[C@H]1C[C@@H]2CC[C@@H](C)[C@@](O)(O2)C(=O)C(=O)N2CCCC[C@H]2C(=O)O[C@H]([C@H](C)C[C@@H]2CC[C@@H](O)[C@H](OC)C2)CC(=O)[C@H](C)/C=C(\C)[C@@H](O)[C@@H](OC)C(=O)[C@H](C)C[C@H](C)/C=C/C=C/C=C/1C [rapamycin]
improvement of surface detection considering the MFI [1]: up to 15 fold
improvement of surface detection considering the percentage of positive cell [1]: ≤ 3 fold

surface exposition of scCAR in presence of AP21967 (FKBP-FRB* scCAR): improved surface exposition
surface exposition of mcCAR in presence of AP21967 (FKBP-FRB* mcCAR CD19; FKBP-FRB* domains in α-chain, FIG. 4): improved surface exposition
concentration of maximum signal induction (FKBP-FRB* mcCAR CD19; dose response, surface detection): 100 nM
SMILES: CO[C@H]1[C@@H](O)[C@H](C)C[C@H](C)/C=C/C=C/C=C(\C)[C@@H](c2c[nH]c3c(C)cccc23)C[C@@H]2CC[C@@H](C)[C@@](O)(O2)C(=O)C(=O)N2CCCC[C@H]2C(=O)O[C@H]([C@H](C)C[C@@H]2CC[C@@H](O)[C@H](OC)C2)C[C@H](O)[C@H](C)/C=C(\C)[C@H]1O [AP21967]
survival of the mice (MOLM13-Luc tumour cells): increased the survival
level of target cell killing versus AP21967 dose (Daudi CD19 positive; 0, 1, 5, 10, 33, 100 nM, FIG. 5B): correlated
cytolytic activity of CAR T cells in presence of AP21967 (Daudi CD19 positive; AP21967 100 nM vs ethanol, E/T 20:1, 5 h, FIG. 5A): improved switched-on cytolytic activity
EC50 (Daudi CD19 positive; FIG. 5B, read-out: EC50 of cytolytic capacity (approximate)): ~10 nM
EC50 (Daudi CD19 positive; FIG. 5B, read-out: EC50 of cytolytic capacity (value in parentheses)): 12.7 nM
